Experimental data taken from patent publication US11680948B2 (ABREOS BIOSCIENCES, INC., priority 2016, dated 2023).
Read-outs that look alike come from different tables or passages of the source. Each block holds one substance with its values, some of them ahead of it.

How the values were obtained:
[1] = system: natalizumab; experiment: Binding of purified phage clones to natalizumab-coated wells; details: individually amplified and purified phage clones
Experimental: Mimetope peptides were selected from phage display libraries, some of which contain cysteines flanking the peptide mimetope sequence to increase stability of the peptide through disulfide bond formation. After three rounds of selection with multiple phage display libraries, individual phage plaques were isolated and sequenced.
All of these unique phage clones were individually amplified and purified, and their ability to specifically bind natalizumab-coated wells was assessed. […] Selected peptides derived from validated phage clones were chemically synthesized with an N-terminal acetyl modification (in some cases), C-terminal biotin modification via a terminal lysine (all peptides), and a disulfide bridge between cysteines 2 and 10 or cysteines 8 and 16 by a contract peptide manufacturer, as shown in Table 2.

[2] = system: natalizumab; details: human serum spiked with natalizumab, rituximab, atezolizumab, pembrolizumab, eculizumab
Experimental: Synthesized peptides were validated for specificity by using them as ELISA capture reagents on neutravidin-coated plates. Briefly, biotinylated peptides were coated on the wells at 100 ug/mL concentration in either tris buffered saline buffer (TBS) or water. […] Antibody that was captured by the peptides was subsequently detected using a goat anti-human IgG-Fc conjugated to horseradish peroxidase (HRP) combined with a colorimetric substrate. […] The percent of recovery was calculated as follow: calibrated concentration/nominal concentration×100.

[3] = system: natalizumab; details: 1,000 or 10,000 fold molar excess of peptide; Jeko-1 cells
From the text: (§1) Jeko-1 cells, expressing CD49d, were used as a model.
as §1

[4] = system: natalizumab; experiment: Competition ELISA between natalizumab-specific VERITOPE and anti-idiotype; type: binding; details: capture reagent versus competitive reagent
From the text: In FIG. 11A natalizumab-specific VERITOPE™ is the capture reagent and anti-idiotype is the competitive reagent. In FIG. 11B, anti-idiotype is the capture reagent and natalizumab-specific VERITOPE™ is the competitive reagent.
FIGS. 10A and B illustrates a comparison of VERITOPE™ (FIG. 10A) and anti-idiotype (FIG. 10B) ELISA binding.

[5] = system: natalizumab; experiment: Anti-idiotype ELISA versus VERITOPE ELISA on heat-inactivated natalizumab; type: binding; details: natalizumab heat-inactivated at 60° C.
[6] = system: Jeko-1 cells, expressing CD49d; experiment: Flow cytometry: binding of heat-inactivated natalizumab to Jeko-1 cells; type: cell-based; details: 60° C. for various periods of time; bivalent and arm-exchanged (bispecific) natalizumab
[7] = biological target: T1, integrin (Homo sapiens, UniProt P13612); details: at the end of 4 weeks, cited from earlier work
T1 construct: host or cells: cells of treated patients

[8] = system: Fc gamma receptors; details: like other IgG4 antibodies; cited from earlier work
[9] = system: complement; details: in vitro; cited from earlier work

Substance: ACPKNPSKFCGGG{Lys(Biotin)} with Cys2-Cys10 bridge [NTZ-07-Bio]
- selectivity for natalizumab over other therapeutic monoclonal antibodies [2]: selectively captures natalizumab in presence of other circulating human IgG

Substance: ACPMNESKFCGGG [SEQ ID NO: 1]
- specific binding to natalizumab-coated wells [1]: specific binding to natalizumab

Substance: ACPSNPSKFCGGG [SEQ ID NO: 2]
- specific binding to natalizumab-coated wells [1]: specific binding to natalizumab

Substance: Ac-ACPMNESKFCGGG{Lys(Biotin)} with Cys2-Cys10 bridge [NTZ-01-Bio]
- inhibition of natalizumab binding to its cell surface target [3]: can inhibit binding of natalizumab to its cell surface target
- region of natalizumab bound [4]: bind to the same region of natalizumab, most likely the antigen binding site
- ability of capture reagent to distinguish active and inactive drug [5]: selectively distinguishes & quantifies active drug

Substance: natalizumab
- effect of heat-inactivation on binding to cellular target [6]: alters natalizumab binding to its cellular target
- integrin saturation by natalizumab ([7]; Hyams et al. 2007, crohn disease in adolescents): less than 40%
- integrin saturation by natalizumab ([7]; Miller et al. 2003, relapsing multiple sclerosis): 80%
- binding to Fc gamma receptors [8]: reduced binding to Fc gamma receptors
- ability to fix complement [9]: lack of ability to fix complement

The remaining lines, values ahead:

- specific binding to natalizumab-coated wells [1]: specific binding to natalizumab
Substance: ACPKNPNKFCGGG [SEQ ID NO: 4]

- specific binding to natalizumab-coated wells [1]: specific binding to natalizumab
Substance: IYAAYPPCPQNLSKFCRHSSSPGGGG [SEQ ID NO: 16]

- specific binding to natalizumab-coated wells [1]: specific binding to natalizumab
Substance: QTLNHSWLHTFIGGG [SEQ ID NO: 13]
